In US12161723B2, “Water-based cannabinoid and opioid compositions” (DAY THREE LABS MAN[…]., priority 2014, dated 2024):

Legend:
BSA [1] = target: T1, BSA (Bos taurus, UniProt P02769); experiment: Cannabis smoke/vapor passed through BSA/water/ethanol solution, cannabinoid profile (Example 1d); type: binding, bovine; conditions: 33% ethanol, 48 hours incubation, washed
Protocol: (§1) To show which cannabinoid compounds are solubilized in processes using BSA versus organic solvents, cannabis from two different batches was smoked and or vaporized. Vapor was formed using a “volcano” vaporizer at a temperature of 210° C. The smoke/vapor was passed through either a BSA/water/ethanol solution described in example 1b, comprising 33% by volume ethanol or through a pure ethanol (99% ethanol) solution. Solutions were stirred using a magnetic stirrer and were incubated for 48 hours, during which time, most of the ethanol evaporated. One of the batches of cannabis was high in THC, and the other batch of cannabis was high in both THC and CBD.
The BSA/water/ethanol solution was washed after smoke or vapor was combined with it, and the amount of cannabinoids present was analyzed. The results of the comparison of relative concentration of cannabinoids (relative to total cannabinoid content) as expressed in percent (weight/weight), for a strain of cannabis high in THC are shown in the table below.

[2] = Cannabis smoke/vapor passed through pure ethanol, cannabinoid profile (Example 1d); type: physicochemical; conditions: for relative concentration of cannabinoids (relative to total cannabinoid content), Vapor passed through ethanol: vapor at 210° C.
Protocol: as §1

bovine γ-globulin = experiment: Cannabis vapor streamed through protein solution, cannabinoids adsorbed (Example 1f); type: binding; conditions: vapor of cannabis high in CBD; 1 mg/ml protein, ethanol:water 1:2, 30° C., 24 hours
Protocol: (§2) The protein solutions were formed using ethanol and water in a 1:2 ratio. The solutions were incubated at 30° C. for 24 hours.

ovalbumin (hen) = target: T2, ovalbumin (hen) (Gallus gallus, UniProt P01012); experiment: as above; type: binding; conditions: vapor of cannabis high in CBD; for percentage of each cannabinoid relative to total cannabinoids adsorbed to protein, Ovalbumin: 1 mg/ml protein, ethanol:water 1:2, 30° C., 24 hours
T2 sequence (P01012 1-386): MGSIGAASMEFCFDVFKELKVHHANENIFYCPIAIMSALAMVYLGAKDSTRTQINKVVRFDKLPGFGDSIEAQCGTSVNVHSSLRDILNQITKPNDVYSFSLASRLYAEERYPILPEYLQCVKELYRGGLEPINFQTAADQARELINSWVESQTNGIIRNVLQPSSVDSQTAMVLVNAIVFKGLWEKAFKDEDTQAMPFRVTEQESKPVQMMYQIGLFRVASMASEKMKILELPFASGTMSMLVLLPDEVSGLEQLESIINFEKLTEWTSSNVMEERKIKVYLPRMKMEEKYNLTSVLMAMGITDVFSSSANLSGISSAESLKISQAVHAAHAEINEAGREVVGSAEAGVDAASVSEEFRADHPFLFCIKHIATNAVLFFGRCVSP
Protocol: as §2

[3] = target: T3, rice recombinant human serum albumin (HSA) (Homo sapiens, UniProt P02768); experiment: as above; type: binding; conditions: vapor of cannabis high in CBD; 1 mg/ml protein, ethanol:water 1:2, 30° C., 24 hours
T3 construct: host or cells: rice (recombinant expression host)
T3 sequence (P02768 25-609): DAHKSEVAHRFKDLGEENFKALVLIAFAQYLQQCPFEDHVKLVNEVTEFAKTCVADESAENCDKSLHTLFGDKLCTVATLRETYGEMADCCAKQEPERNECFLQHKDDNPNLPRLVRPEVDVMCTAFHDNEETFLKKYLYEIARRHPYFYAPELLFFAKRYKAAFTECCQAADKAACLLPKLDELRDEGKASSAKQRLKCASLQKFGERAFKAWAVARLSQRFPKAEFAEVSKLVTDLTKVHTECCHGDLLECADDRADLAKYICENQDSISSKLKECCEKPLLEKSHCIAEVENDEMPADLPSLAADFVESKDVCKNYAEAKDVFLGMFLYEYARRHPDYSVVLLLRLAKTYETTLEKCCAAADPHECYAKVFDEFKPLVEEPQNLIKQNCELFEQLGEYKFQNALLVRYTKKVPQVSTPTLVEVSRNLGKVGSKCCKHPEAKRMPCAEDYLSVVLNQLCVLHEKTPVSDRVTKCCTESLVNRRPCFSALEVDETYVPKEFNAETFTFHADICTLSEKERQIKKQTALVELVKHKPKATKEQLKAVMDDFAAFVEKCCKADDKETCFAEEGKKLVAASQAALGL
Protocol: as §2

[4] = Cannabinoid content of cannabis extract (Example 2a); type: physicochemical; conditions: methanol/chloroform 9:1 cannabis extract
Protocol: (§3) Cannabis extract was prepared as follows: In short, cannabis plant matter is dried, ground and homogenized to form ground cannabis. The ground cannabis is extracted with methanol/chloroform (volume/volume ratio of 9:1). Sonication and filtration is then performed. Identity of cannabinoids is determined by HPLC by evaporation, dissolution in an appropriate solvent.
(§4) Drying of the cannabis plant matter occurs under high vacuum at about 37±2° C. for about 24 hours and then ground to form a fine powder. 200 mg of ground powder is combined with 10 ml of methanol/chloroform, and sonicated in an ice bath for 30 minutes at maximum power. The supernatant is then filtered through a 0.2 micron filter.
(§5) A sample of the cannabis extract was analyzed for content of cannabinoids. The cannabis extract was then combined with albumin solution having 20% ethanol at 10 mg/ml (BSA) and incubated for 2 hours at room temperature.

BSA [5] = target: T1, BSA; experiment: Cannabis extract combined with albumin solution, cannabinoids adsorbed to BSA (Example 2a); type: binding, bovine; conditions: albumin solution 10 mg/ml (BSA) with 20% ethanol, 2 hours at room temperature
Protocol: as §3, §4, §5

albumin (BSA) = albumin (BSA) (Bos taurus, UniProt P02769); experiment: Ethanolic cannabinoid solution mixed with aqueous albumin, protein-bound cannabinoid quantified (Example 2b); type: binding, bovine; set-up: protein-bound cannabinoid quantified, Vapor: unit not given beside the values; conditions: 100 microliters ethanolic solution + 500 microliters 5 mg/ml BSA, 30° C., 12 hours, non-adsorbed cannabinoids separated
albumin (BSA), sequence (P02769 25-607): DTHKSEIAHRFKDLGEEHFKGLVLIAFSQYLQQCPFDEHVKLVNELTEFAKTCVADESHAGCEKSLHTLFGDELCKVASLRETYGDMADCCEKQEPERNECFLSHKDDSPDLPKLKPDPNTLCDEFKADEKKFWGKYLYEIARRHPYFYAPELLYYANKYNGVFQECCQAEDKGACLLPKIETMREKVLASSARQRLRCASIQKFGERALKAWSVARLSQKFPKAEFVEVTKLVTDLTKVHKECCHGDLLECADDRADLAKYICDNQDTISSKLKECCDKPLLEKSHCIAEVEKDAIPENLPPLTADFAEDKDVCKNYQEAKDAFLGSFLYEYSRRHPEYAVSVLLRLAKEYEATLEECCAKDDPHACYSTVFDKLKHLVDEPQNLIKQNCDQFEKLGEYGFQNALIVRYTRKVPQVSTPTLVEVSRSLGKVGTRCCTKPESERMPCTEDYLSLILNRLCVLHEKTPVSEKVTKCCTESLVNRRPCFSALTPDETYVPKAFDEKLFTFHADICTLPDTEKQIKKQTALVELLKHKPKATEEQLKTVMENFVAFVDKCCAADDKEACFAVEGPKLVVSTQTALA
Protocol: 100 microliters of ethanolic cannabinoid solution from cannabis vapor and cannabis smoke were each mixed with 500 microliters of aqueous albumin solution that had been prepared at a concentration of 5 mg albumin (BSA)/ml. The aqueous albumin solution combined with the ethanolic cannabinoid solution was incubated at 30° C. for 12 hours in open tubes. After 12 hours, the tubes were mixed and centrifuged, and non-adsorbed cannabinoids were separated from the solution. Concentrated protein-bound cannabinoid was dried and quantified as described below.

[6] = 3 g high THC strain; 200 ml ethanol concentrated to about 3 ml
[7] = strain of cannabis high in CBD and THC

T1 sequence (P02769 25-607): as above

Molecule: C=C(C)[C@@H]1CCC(C)=C[C@H]1c1c(O)cc(CCCCC)cc1O [CBD, cannabidiol, reference compound]
- relative concentration of cannabinoids (relative to total cannabinoid content), Smoke passed through BSA/water/ethanol (BSA [1]; [7]): 22.3 percent (weight/weight)
- relative concentration of cannabinoids (relative to total cannabinoid content), Vapor passed through BSA/water/ethanol (BSA [1]; [7]): 33.4 percent (weight/weight)
- relative concentration of cannabinoids (relative to total cannabinoid content), Smoke passed through BSA/water/ethanol (BSA [1]; strain of cannabis high in THC): 0.0 percent (weight/weight)
- relative concentration of cannabinoids (relative to total cannabinoid content), Smoke passed through ethanol [2, 7]: 44.7 percent (weight/weight)
- relative concentration of cannabinoids (relative to total cannabinoid content), Vapor passed through ethanol [2, 7]: 51.1 percent (weight/weight)
- relative concentration of cannabinoids (relative to total cannabinoid content), Smoke passed through ethanol ([2]; strain of cannabis high in THC): 1.9 percent (weight/weight)
- relative concentration of cannabinoids (relative to total cannabinoid content), Vapor passed through ethanol ([2]; strain of cannabis high in THC): 0.3 percent (weight/weight)
- percentage of each cannabinoid relative to total cannabinoids adsorbed to protein, Bovine γ-globulin (bovine γ-globulin): 0 percentage
- percentage of each cannabinoid relative to total cannabinoids adsorbed to protein, Ovalbumin (ovalbumin (hen)): 55.9 percentage
- percentage of each cannabinoid relative to total cannabinoids adsorbed to protein, Rice recombinant HSA [3]: 33 percentage
- percentage of each cannabinoid relative to total cannabinoids, Extract [4]: 0 percentage
- percentage of each cannabinoid relative to total cannabinoids adsorbed to protein, Adsorbed to BSA after extract combined with BSA solution (BSA [5]): 0 percentage
- protein-bound cannabinoid quantified, Smoke (albumin (BSA)): 0
- protein-bound cannabinoid quantified, Vapor (albumin (BSA)): 0
- amount of cannabinoids dissolved in ethanol, Smoke [6]: 0 micrograms/ml
- amount of cannabinoids dissolved in ethanol, Vapor [6]: 17.2726 micrograms/ml

Molecule: C=C(C)[C@@H]1CCC(C)=C[C@H]1c1c(O)cc(CCCCC)c(C(=O)O)c1O [CBDA, cannabidiolic acid]
- relative concentration of cannabinoids (relative to total cannabinoid content), Smoke passed through BSA/water/ethanol (BSA [1]; [7]): 39.8 percent (weight/weight)
- relative concentration of cannabinoids (relative to total cannabinoid content), Vapor passed through BSA/water/ethanol (BSA [1]; [7]): 23.6 percent (weight/weight)
- relative concentration of cannabinoids (relative to total cannabinoid content), Smoke passed through BSA/water/ethanol (BSA [1]; strain of cannabis high in THC): 0.0 percent (weight/weight)
- relative concentration of cannabinoids (relative to total cannabinoid content), Smoke passed through ethanol [2, 7]: 2.3 percent (weight/weight)
- relative concentration of cannabinoids (relative to total cannabinoid content), Vapor passed through ethanol [2, 7]: 1.6 percent (weight/weight)
- relative concentration of cannabinoids (relative to total cannabinoid content), Smoke passed through ethanol ([2]; strain of cannabis high in THC): 0.9 percent (weight/weight)
- relative concentration of cannabinoids (relative to total cannabinoid content), Vapor passed through ethanol ([2]; strain of cannabis high in THC): 0.4 percent (weight/weight)
- percentage of each cannabinoid relative to total cannabinoids adsorbed to protein, Bovine γ-globulin (bovine γ-globulin): 0 percentage
- percentage of each cannabinoid relative to total cannabinoids adsorbed to protein, Ovalbumin (ovalbumin (hen)): 2.4 percentage
- percentage of each cannabinoid relative to total cannabinoids adsorbed to protein, Rice recombinant HSA [3]: 46 percentage
- percentage of each cannabinoid relative to total cannabinoids, Extract [4]: 1 percentage
- percentage of each cannabinoid relative to total cannabinoids adsorbed to protein, Adsorbed to BSA after extract combined with BSA solution (BSA [5]): 0 percentage
- protein-bound cannabinoid quantified, Smoke (albumin (BSA)): 0
- protein-bound cannabinoid quantified, Vapor (albumin (BSA)): 0
- amount of cannabinoids dissolved in ethanol, Smoke [6]: 0 micrograms/ml
- amount of cannabinoids dissolved in ethanol, Vapor [6]: 3.1218 micrograms/ml

Molecule: CCCCCc1cc(O)c(C/C=C(\C)CCC=C(C)C)c(O)c1 [CBG, cannabigerol]
- relative concentration of cannabinoids (relative to total cannabinoid content), Smoke passed through BSA/water/ethanol (BSA [1]; [7]): 0.0 percent (weight/weight)
- relative concentration of cannabinoids (relative to total cannabinoid content), Vapor passed through BSA/water/ethanol (BSA [1]; [7]): 0.0 percent (weight/weight)
- relative concentration of cannabinoids (relative to total cannabinoid content), Smoke passed through BSA/water/ethanol (BSA [1]; strain of cannabis high in THC): 21.0 percent (weight/weight)
- relative concentration of cannabinoids (relative to total cannabinoid content), Smoke passed through ethanol [2, 7]: 4.2 percent (weight/weight)
- relative concentration of cannabinoids (relative to total cannabinoid content), Vapor passed through ethanol [2, 7]: 1.5 percent (weight/weight)
- relative concentration of cannabinoids (relative to total cannabinoid content), Smoke passed through ethanol ([2]; strain of cannabis high in THC): 4.9 percent (weight/weight)
- relative concentration of cannabinoids (relative to total cannabinoid content), Vapor passed through ethanol ([2]; strain of cannabis high in THC): 1.2 percent (weight/weight)
- percentage of each cannabinoid relative to total cannabinoids adsorbed to protein, Bovine γ-globulin (bovine γ-globulin): 0 percentage
- percentage of each cannabinoid relative to total cannabinoids adsorbed to protein, Ovalbumin (ovalbumin (hen)): 0 percentage
- percentage of each cannabinoid relative to total cannabinoids adsorbed to protein, Rice recombinant HSA [3]: 0 percentage
- percentage of each cannabinoid relative to total cannabinoids, Extract [4]: 3 percentage
- percentage of each cannabinoid relative to total cannabinoids adsorbed to protein, Adsorbed to BSA after extract combined with BSA solution (BSA [5]): 1 percentage
- protein-bound cannabinoid quantified, Smoke (albumin (BSA)): 5.9
- protein-bound cannabinoid quantified, Vapor (albumin (BSA)): 11.685
- amount of cannabinoids dissolved in ethanol, Smoke [6]: 292.063 micrograms/ml
- amount of cannabinoids dissolved in ethanol, Vapor [6]: 183.6224 micrograms/ml

Molecule: CCCCCc1cc(O)c2c(c1)OC(C)(C)[C@@H]1CC=C(C)C[C@@H]21 [DELTA-8-THC]
- relative concentration of cannabinoids (relative to total cannabinoid content), Smoke passed through BSA/water/ethanol (BSA [1]; [7]): 0.0 percent (weight/weight)
- relative concentration of cannabinoids (relative to total cannabinoid content), Vapor passed through BSA/water/ethanol (BSA [1]; [7]): 0.0 percent (weight/weight)
- relative concentration of cannabinoids (relative to total cannabinoid content), Smoke passed through BSA/water/ethanol (BSA [1]; strain of cannabis high in THC): 0.0 percent (weight/weight)
- relative concentration of cannabinoids (relative to total cannabinoid content), Smoke passed through ethanol [2, 7]: 0.0 percent (weight/weight)
- relative concentration of cannabinoids (relative to total cannabinoid content), Vapor passed through ethanol [2, 7]: 0.0 percent (weight/weight)
- relative concentration of cannabinoids (relative to total cannabinoid content), Smoke passed through ethanol ([2]; strain of cannabis high in THC): 0.0 percent (weight/weight)
- relative concentration of cannabinoids (relative to total cannabinoid content), Vapor passed through ethanol ([2]; strain of cannabis high in THC): 0.0 percent (weight/weight)
- protein-bound cannabinoid quantified, Smoke (albumin (BSA)): 0
- protein-bound cannabinoid quantified, Vapor (albumin (BSA)): 4.6
- amount of cannabinoids dissolved in ethanol, Smoke [6]: 0 micrograms/ml
- amount of cannabinoids dissolved in ethanol, Vapor [6]: 0 micrograms/ml

Molecule: CCCc1cc(O)c2c(c1)OC(C)(C)[C@@H]1CCC(C)=C[C@@H]21 [THCV, tetrahydrocannabivarin]
- relative concentration of cannabinoids (relative to total cannabinoid content), Smoke passed through BSA/water/ethanol (BSA [1]; [7]): 0.0 percent (weight/weight)
- relative concentration of cannabinoids (relative to total cannabinoid content), Vapor passed through BSA/water/ethanol (BSA [1]; [7]): 0.0 percent (weight/weight)
- relative concentration of cannabinoids (relative to total cannabinoid content), Smoke passed through BSA/water/ethanol (BSA [1]; strain of cannabis high in THC): 0.0 percent (weight/weight)
- relative concentration of cannabinoids (relative to total cannabinoid content), Smoke passed through ethanol [2, 7]: 2.4 percent (weight/weight)
- relative concentration of cannabinoids (relative to total cannabinoid content), Vapor passed through ethanol [2, 7]: 0.8 percent (weight/weight)
- relative concentration of cannabinoids (relative to total cannabinoid content), Smoke passed through ethanol ([2]; strain of cannabis high in THC): 2.4 percent (weight/weight)
- relative concentration of cannabinoids (relative to total cannabinoid content), Vapor passed through ethanol ([2]; strain of cannabis high in THC): 0.7 percent (weight/weight)

B1: ovalbumin: ovalbumin (hen) (protein, UniProt P01012 2-386, looked up)
Ovalbumin: GSIGAASMEFCFDVFKELKVHHANENIFYCPIAIMSALAMVYLGAKDSTRTQINKVVRFDKLPGFGDSIEAQCGTSVNVHSSLRDILNQITKPNDVYSFSLASRLYAEERYPILPEYLQCVKELYRGGLEPINFQTAADQARELINSWVESQTNGIIRNVLQPSSVDSQTAMVLVNAIVFKGLWEKAFKDEDTQAMPFRVTEQESKPVQMMYQIGLFRVASMASEKMKILELPFASGTMSMLVLLPDEVSGLEQLESIINFEKLTEWTSSNVMEERKIKVYLPRMKMEEKYNLTSVLMAMGITDVFSSSANLSGISSAESLKISQAVHAAHAEINEAGREVVGSAEAGVDAASVSEEFRADHPFLFCIKHIATNAVLFFGRCVSP
- cannabinoid adsorbed per mg of protein (ovalbumin (hen); 1 mg/ml ovalbumin): about 4 micrograms of cannabinoid per mg of protein
